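Tested at 5 concentrations; 48 h exposure; 96-well plates; endpoints linearly interpolated, else capped at highest concentration. Abbreviation: GI50, concentration required for 50% inhibition of growth. TGI denotes the concentration required for complete inhibition of growth.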
Experiments:
Assay in all cases: NCI tumour cell line growth inhibition, 48 h
[1] = test system: 786-0 renal
[2] = test system: A549 NSCLC
[3] = test system: ACHN renal
[4] = test system: CAKI-1 renal
[5] = test system: CCRF-CEM leukemia
[6] = test system: COLO 205 colon
[7] = test system: DU-145 prostate
[8] = test system: EKVX NSCLC
[9] = test system: HCC-2998 colon
[10] = test system: HCT-116 colon
[11] = test system: HCT-15 colon
[12] = test system: HOP-62 NSCLC
[13] = test system: HOP-92 NSCLC
[14] = test system: HS 578T breast
[15] = test system: HT29 colon
[16] = test system: IGROV1 ovarian
[17] = test system: K-562 leukemia
[18] = test system: KM12 colon
[19] = test system: LOX IMVI melanoma
[20] = test system: M14 melanoma
[21] = test system: MALME-3M melanoma
[22] = test system: MCF7 breast
[23] = test system: MDA-MB-231 breast
[24] = test system: MDA-MB-435
[25] = test system: MDA-N
[26] = test system: MOLT-4 leukemia
[27] = test system: NCI-H226 lung
[28] = test system: NCI-H23 lung
[29] = test system: NCI-H460 lung
[30] = test system: NCI-H522 lung
[31] = test system: NCI/ADR-RES ovarian
[32] = test system: OVCAR-3 ovarian
[33] = test system: OVCAR-4 ovarian
[34] = test system: OVCAR-5 ovarian
[35] = test system: OVCAR-8 ovarian
[36] = test system: PC-3 prostate
[37] = test system: RPMI-8226 leukemia
[38] = test system: SF-268 CNS
[39] = test system: SF-295 CNS
[40] = test system: SF-539 CNS
[41] = test system: SK-MEL-2 melanoma
[42] = test system: SK-MEL-28 melanoma
[43] = test system: SK-MEL-5 melanoma
[44] = test system: SN12C renal
[45] = test system: SNB-19 CNS
[46] = test system: SNB-75 CNS
[47] = test system: SW-620 colon
[48] = test system: TK-10 renal
[49] = test system: U251 CNS
[50] = test system: UACC-257 melanoma
[51] = test system: UO-31 renal
[52] = test system: BT-549 breast
[53] = test system: RXF 393 renal
[54] = test system: SK-OV-3 ovarian
[55] = test system: SR leukemia
[56] = test system: UACC-62 melanoma
[57] = test system: A498 renal
[58] = test system: HL-60(TB) leukemia
[59] = test system: T-47D breast

CC[C@H](CC[C@@H](C)[C@H]1CC[C@H]2[C@@H]3CC=C4C[C@@H](O)CC[C@]4(C)[C@H]3CC[C@]12C)C(C)C
TGI [1]: > 100 µM
TGI [2]: > 100 µM
TGI [3]: > 100 µM
TGI [4]: > 100 µM
TGI [5]: > 100 µM
TGI [6]: > 100 µM
TGI [7]: > 100 µM
TGI [8]: > 100 µM
TGI [9]: > 100 µM
TGI [10]: > 100 µM
TGI [11]: > 100 µM
TGI [12]: > 100 µM
TGI [13]: > 100 µM
TGI [14]: > 100 µM
TGI [15]: > 100 µM
TGI [16]: > 100 µM
TGI [17]: > 100 µM
TGI [18]: > 100 µM
TGI [19]: > 100 µM
TGI [20]: > 100 µM
TGI [21]: > 100 µM
TGI [22]: > 100 µM
TGI [23]: > 100 µM
TGI [24]: > 100 µM
TGI [25]: > 100 µM
TGI [26]: > 100 µM
TGI [27]: > 100 µM
TGI [28]: > 100 µM
TGI [29]: > 100 µM
TGI [30]: > 100 µM
TGI [31]: > 100 µM
TGI [32]: > 100 µM
TGI [33]: > 100 µM
TGI [34]: > 100 µM
TGI [35]: > 100 µM
TGI [36]: > 100 µM
TGI [37]: > 100 µM
TGI [38]: > 100 µM
TGI [39]: > 100 µM
TGI [40]: > 100 µM
TGI [41]: > 100 µM
TGI [42]: > 100 µM
TGI [43]: > 100 µM
TGI [44]: > 100 µM
TGI [45]: > 100 µM
TGI [46]: > 100 µM
TGI [47]: > 100 µM
TGI [48]: > 100 µM
TGI [49]: > 100 µM
TGI [50]: > 100 µM
TGI [51]: > 100 µM

Cc1ccc(-n2c(C)n[nH]c2=O)cc1
TGI [1]: > 100 µM
TGI [2]: > 100 µM
TGI [3]: > 100 µM
TGI [52]: > 100 µM
TGI [5]: > 100 µM
TGI [6]: > 100 µM
TGI [7]: > 100 µM
TGI [8]: > 100 µM
TGI [9]: > 100 µM
TGI [10]: > 100 µM
TGI [11]: > 100 µM
TGI [12]: > 100 µM
TGI [13]: > 100 µM
TGI [15]: > 100 µM
TGI [16]: > 100 µM
TGI [17]: > 100 µM
TGI [18]: > 100 µM
TGI [19]: > 100 µM
TGI [20]: > 100 µM
TGI [22]: > 100 µM
TGI [23]: > 100 µM
TGI [24]: > 100 µM
TGI [25]: > 100 µM
TGI [26]: > 100 µM
TGI [28]: > 100 µM
TGI [30]: > 100 µM
TGI [31]: > 100 µM
TGI [32]: > 100 µM
TGI [34]: > 100 µM
TGI [35]: > 100 µM
TGI [36]: > 100 µM
TGI [37]: > 100 µM
TGI [53]: > 100 µM
TGI [38]: > 100 µM
TGI [39]: > 100 µM
TGI [40]: > 100 µM
TGI [41]: > 100 µM
TGI [42]: > 100 µM
TGI [43]: > 100 µM
TGI [54]: > 100 µM
TGI [44]: > 100 µM
TGI [45]: > 100 µM
TGI [46]: > 100 µM
TGI [55]: > 100 µM
TGI [47]: > 100 µM
TGI [48]: > 100 µM
TGI [49]: > 100 µM
TGI [50]: > 100 µM
TGI [56]: > 100 µM
TGI [51]: > 100 µM

COc1ccc(OC)c(Nc2nc3ccccc3c3c2-c2ccc(OC)cc2C3=O)c1
GI50 [1]: > 100 µM
TGI [1]: > 100 µM
GI50 [57]: > 100 µM
TGI [57]: > 100 µM
GI50 [2]: > 100 µM
TGI [2]: > 100 µM
GI50 [3]: > 100 µM
TGI [3]: > 100 µM
GI50 [52]: > 100 µM
TGI [52]: > 100 µM
GI50 [4]: > 100 µM
TGI [4]: > 100 µM
GI50 [5]: > 100 µM
TGI [5]: > 100 µM
GI50 [6]: > 100 µM
TGI [6]: > 100 µM
GI50 [7]: > 100 µM
TGI [7]: > 100 µM
GI50 [8]: > 100 µM
TGI [8]: > 100 µM
GI50 [9]: > 100 µM
TGI [9]: > 100 µM
GI50 [10]: > 100 µM
TGI [10]: > 100 µM
GI50 [11]: > 100 µM
TGI [11]: > 100 µM
GI50 [58]: > 100 µM
TGI [58]: > 100 µM
GI50 [12]: > 100 µM
TGI [12]: > 100 µM
GI50 [13]: > 100 µM
TGI [13]: > 100 µM
GI50 [14]: > 100 µM
TGI [14]: > 100 µM
GI50 [15]: > 100 µM
TGI [15]: > 100 µM
GI50 [16]: > 100 µM
TGI [16]: > 100 µM
GI50 [17]: > 100 µM
TGI [17]: > 100 µM
GI50 [18]: > 100 µM
TGI [18]: > 100 µM
GI50 [19]: > 100 µM
TGI [19]: > 100 µM
GI50 [20]: > 100 µM
TGI [20]: > 100 µM
GI50 [21]: > 100 µM
TGI [21]: > 100 µM
GI50 [22]: > 100 µM
TGI [22]: > 100 µM
GI50 [23]: > 100 µM
TGI [23]: > 100 µM
GI50 [24]: > 100 µM
TGI [24]: > 100 µM
GI50 [26]: > 100 µM
TGI [26]: > 100 µM
GI50 [27]: > 100 µM
TGI [27]: > 100 µM
GI50 [28]: > 100 µM
TGI [28]: > 100 µM
GI50 [29]: > 100 µM
TGI [29]: > 100 µM
GI50 [30]: > 100 µM
TGI [30]: > 100 µM
GI50 [31]: > 100 µM
TGI [31]: > 100 µM
GI50 [32]: > 100 µM
TGI [32]: > 100 µM
GI50 [33]: > 100 µM
TGI [33]: > 100 µM
GI50 [34]: > 100 µM
TGI [34]: > 100 µM
GI50 [35]: > 100 µM
TGI [35]: > 100 µM
GI50 [36]: > 100 µM
TGI [36]: > 100 µM
GI50 [37]: > 100 µM
TGI [37]: > 100 µM
GI50 [53]: > 100 µM
TGI [53]: > 100 µM
GI50 [38]: > 100 µM
TGI [38]: > 100 µM
GI50 [39]: > 100 µM
TGI [39]: > 100 µM
GI50 [40]: > 100 µM
TGI [40]: > 100 µM
GI50 [41]: > 100 µM
TGI [41]: > 100 µM
GI50 [42]: > 100 µM
TGI [42]: > 100 µM
GI50 [43]: > 100 µM
TGI [43]: > 100 µM
GI50 [54]: > 100 µM
TGI [54]: > 100 µM
GI50 [44]: > 100 µM
TGI [44]: > 100 µM
GI50 [45]: > 100 µM
TGI [45]: > 100 µM
GI50 [46]: > 100 µM
TGI [46]: > 100 µM
GI50 [55]: 40.7 µM
TGI [55]: > 100 µM
GI50 [47]: > 100 µM
TGI [47]: > 100 µM
GI50 [59]: > 100 µM
TGI [59]: > 100 µM
GI50 [48]: > 100 µM
TGI [48]: > 100 µM
GI50 [49]: > 100 µM
TGI [49]: > 100 µM
GI50 [50]: > 100 µM
TGI [50]: > 100 µM
GI50 [56]: > 100 µM
TGI [56]: > 100 µM
GI50 [51]: > 100 µM
TGI [51]: > 100 µM

COc1ccc(COC(=O)NNC(=O)C2CSC(c3ccccc3)N2C(C)=O)cc1 (stereo not given)
TGI [1]: > 100 µM
TGI [57]: > 100 µM
TGI [2]: > 100 µM
TGI [3]: > 100 µM
TGI [52]: > 100 µM
TGI [4]: > 100 µM
TGI [5]: > 100 µM
TGI [7]: > 100 µM
TGI [8]: > 100 µM
TGI [9]: > 100 µM
TGI [10]: > 100 µM
TGI [11]: > 100 µM
TGI [58]: > 100 µM
TGI [12]: > 100 µM
TGI [13]: > 100 µM
TGI [14]: > 100 µM
TGI [15]: > 100 µM
TGI [16]: > 100 µM
TGI [17]: > 100 µM
TGI [18]: > 100 µM
TGI [19]: > 100 µM
TGI [20]: > 100 µM
TGI [21]: > 100 µM
TGI [22]: > 100 µM
TGI [24]: > 100 µM
TGI [25]: > 100 µM
TGI [26]: > 100 µM
TGI [27]: > 100 µM
TGI [28]: > 100 µM
TGI [29]: > 100 µM
TGI [30]: > 100 µM
TGI [31]: > 100 µM
TGI [32]: > 100 µM
TGI [33]: > 100 µM
TGI [34]: > 100 µM
TGI [35]: > 100 µM
TGI [36]: > 100 µM
TGI [37]: > 100 µM
TGI [38]: > 100 µM
TGI [39]: > 100 µM
TGI [40]: > 100 µM
TGI [41]: > 100 µM
TGI [43]: > 100 µM
TGI [54]: > 100 µM
TGI [44]: > 100 µM
TGI [45]: > 100 µM
TGI [46]: > 100 µM
TGI [47]: > 100 µM
TGI [48]: > 100 µM
TGI [49]: > 100 µM
TGI [50]: > 100 µM
TGI [56]: > 100 µM
TGI [51]: > 100 µM

— PubChem BioAssay (NCI)
